Source: patent US10370343B2, “[6,6] Fused bicyclic HDAC8 inhibitors” (FORMA Therapeutics, Inc., priority 2015, dated 2019)
Counter-ions that a name gives are not always drawn.

Assays:
[1] = biological target: T1, Full length human recombinant HDAC8 protein (Homo sapiens, UniProt Q9BY41); assay: In vitro histone deacetylase assay: enzymatic HDAC8 electrophoretic mobility shift assay; format: biochemical; conditions: electrophoretic mobility shift assay; enzyme 1 nM; 2 μM fluorescently labeled peptide substrate RHKK(Ac)-NH2; 25° C.; 12 concentrations; read-out: HDAC8 IC50
T1 construct: Full length human recombinant HDAC8 protein was expressed in baculoviral system; made in house
T1 sequence (Q9BY41 1-377): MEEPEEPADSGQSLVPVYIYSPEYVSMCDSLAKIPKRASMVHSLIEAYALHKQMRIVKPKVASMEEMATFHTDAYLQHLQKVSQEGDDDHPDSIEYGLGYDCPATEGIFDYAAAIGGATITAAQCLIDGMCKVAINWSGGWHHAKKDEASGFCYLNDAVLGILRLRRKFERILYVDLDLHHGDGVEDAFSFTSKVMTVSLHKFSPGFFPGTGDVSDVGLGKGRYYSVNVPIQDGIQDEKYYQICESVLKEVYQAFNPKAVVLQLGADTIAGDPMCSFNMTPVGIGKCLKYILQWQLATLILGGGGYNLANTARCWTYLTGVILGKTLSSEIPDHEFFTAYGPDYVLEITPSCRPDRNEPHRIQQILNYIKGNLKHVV

[2] = biological target: T2, Recombinant N-terminal GST tag full-length human HDAC8 (Homo sapiens, UniProt Q9BY41); assay: HDAC8 probe binding assay, time resolved fluorescence (TRF) format; conditions: compounds grouped by IC50 range (Table 2)
T2 construct: Recombinant N-terminal GST tag full-length human HDAC8; purchased SignalChem H90-30G-1000; host or cells: baculovirus in Sf9 insect cells
T2 sequence (Q9BY41 1-377): T1 sequence (Q9BY41 1-377)
Procedure, shortened: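 IC50 values come from four-parameter logistic fits of percent inhibition, scaled between DMSO (high) and no-enzyme (low) controls. Time-resolved fluorescence (ex 340, em 485/535 nm) was read after 16 h at room temperature. Enzyme was Sf9-expressed full-length human HDAC8 with an N-terminal GST tag, in a probe-binding format.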

| Structure (SMILES) | IC50 [1] [nM] | IC50 [2] [nM] |
| --- | --- | --- |
| CC1COc2ccc(C(=O)NO)cc2N1Cc1ccccc1 (centres unmarked) [Compound I-154, 4-benzyl-N-hydroxy-3-methyl-3,4-dihydro-2H-benzo[b][1,4]oxazine-6-carboxamide] | 25 to 100 | 25 to 100 |
| O=C(NO)c1ccc2c(c1)N(Cc1ccn(-c3ccccc3)n1)C(=O)CO2 [Compound I-222, N-hydroxy-3-oxo-4-((1-phenyl-1H-pyrazol-3-yl)methyl)-3,4-dihydro-2H-benzo[b][1,4]oxazine-6-carboxamide] | < 25 | ≤ 25 |
| C#CCN1C(=O)COc2ccc(C(=O)NO)cc21 [Compound I-40, N-hydroxy-3-oxo-4-(prop-2-yn-1-yl)-3,4-dihydro-2H-benzo[b][1,4]oxazine-6-carboxamide] | 100 to 1000 |  |
| O=C(NO)c1ccc2c(c1)N(Cc1ccccc1C(F)(F)F)CCO2 [Compound I-129, N-hydroxy-4-(2-(trifluoromethyl)benzyl)-3,4-dihydro-2H-benzo[b][1,4]oxazine-6-carboxamide] | 100 to 1000 |  |
| O=C(NO)c1ccc2c(c1)N(Cc1ccc(OC(F)(F)F)cc1)CCO2 [Compound I-19, N-hydroxy-4-(4-(trifluoromethoxy)benzyl)-3,4-dihydro-2H-benzo[b][1,4]oxazine-6-carboxamide] | 25 to 100 |  |
| CS(=O)(=O)c1ccc(CN2C(=O)COc3cc(C(=O)NO)ccc32)cc1 [Compound I-90, N-hydroxy-4-(4-(methylsulfonyl)benzyl)-3-oxo-3,4-dihydro-2H-benzo[b][1,4]oxazine-7-carboxamide] | 100 to 1000 |  |
| O=C(NO)c1ccc2c(c1)OC(C(=O)NCc1ccccc1)CN2Cc1ccccc1 (centres unmarked) [Compound I-12, N^2,4-dibenzyl-N^7-hydroxy-3,4-dihydro-2H-benzo[b][1,4]oxazine-2,7-dicarboxamide] | 100 to 1000 |  |
| O=C(NO)c1ccc2c(c1)N(Cc1ccccc1-c1ccccc1)C(=O)CO2 [Compound I-257, 4-([1,1′-biphenyl]-2-ylmethyl)-N-hydroxy-3-oxo-3,4-dihydro-2H-benzo[b][1,4]oxazine-6-carboxamide] | 100 to 1000 |  |
| O=C(NO)c1ccc2c(c1)N(Cc1cccc(F)c1)CCO2 [Compound I-24, 4-(3-fluorobenzyl)-N-hydroxy-3,4-dihydro-2H-benzo[b][1,4]oxazine-6-carboxamide] | < 25 |  |
| COc1ccc(CN2CCOc3ccc(C(=O)NO)cc32)cc1S(C)(=O)=O [Compound I-139, N-hydroxy-4-(4-methoxy-3-(methylsulfonyl)benzyl)-3,4-dihydro-2H-benzo[b][1,4]oxazine-6-carboxamide] | 25 to 100 |  |
| CCCCCN1CCOc2ccc(C(=O)NO)cc21 [Compound I-78, N-hydroxy-4-pentyl-3,4-dihydro-2H-benzo[b][1,4]oxazine-6-carboxamide] | 25 to 100 |  |
| CCCc1nc(C)sc1CN1C(=O)COc2ccc(C(=O)NO)cc21 [Compound I-283, N-hydroxy-4-((2-methyl-4-propylthiazol-5-yl)methyl)-3-oxo-3,4-dihydro-2H-benzo[b][1,4]oxazine-6-carboxamide] | 100 to 1000 |  |
| O=C(NO)c1ccc2c(c1)N(Cc1ccc(C(F)(F)F)cc1)CCS2(=O)=O [Compound I-79, N-hydroxy-4-(4-(trifluoromethyl)benzyl)-3,4-dihydro-2H-benzo[b][1,4]thiazine-6-carboxamide 1,1-dioxide] | < 25 |  |
| CC1CN(Cc2ccc(S(C)(=O)=O)cc2)c2cc(C(=O)NO)ccc2O1 (centres unmarked) [Compound I-85, N-hydroxy-2-methyl-4-(4-(methylsulfonyl)benzyl)-3,4-dihydro-2H-benzo[b][1,4]oxazine-6-carboxamide] | 100 to 1000 |  |
| CN1CC(C(=O)NC2CCOCC2)Oc2ccc(C(=O)NO)cc21 (centres unmarked) [Compound I-1, N^6-hydroxy-4-methyl-N^2-(tetrahydro-2H-pyran-4-yl)-3,4-dihydro-2H-benzo[b][1,4]oxazine-2,6-dicarboxamide hydrochloride] | > 1000 |  |
| O=C(NO)c1ccc2c(c1)N(Cc1cccc(S(=O)(=O)C(F)(F)F)c1)C(=O)CO2 [Compound I-18, N-hydroxy-3-oxo-4-(3-((trifluoromethyl)sulfonyl)benzyl)-3,4-dihydro-2H-benzo[b][1,4]oxazine-6-carboxamide] | 100 to 1000 |  |
| O=C(NO)c1ccc2c(c1)N(Cc1ccc(C(F)(F)F)cc1)CCO2 [Compound I-119, N-hydroxy-4-(4-(trifluoromethyl)benzyl)-3,4-dihydro-2H-benzo[b][1,4]oxazine-6-carboxamide] | 25 to 100 |  |
| O=C(NO)c1ccc2c(c1)OC(C(=O)NC1CCOCC1)CN2Cc1ccccc1 (centres unmarked) [Compound I-8, 4-benzyl-N^7-hydroxy-N^2-(tetrahydro-2H-pyran-4-yl)-3,4-dihydro-2H-benzo[b][1,4]oxazine-2,7-dicarboxamide] | 100 to 1000 |  |

The remaining lines, values ahead:

| IC50 [1] [nM] | IC50 [2] [nM] | Structure (SMILES) |
| --- | --- | --- |
| < 25 | ≤ 25 | O=C(NO)c1ccc2c(c1)N(Cc1ccc(F)cc1Cl)C(=O)CO2 [Compound I-270, 4-(2-chloro-4-fluorobenzyl)-N-hydroxy-3-oxo-3,4-dihydro-2H-benzo[b][1,4]oxazine-6-carboxamide] |
| < 25 | ≤ 25 | Cc1ccc2nc(CN3C(=O)COc4ccc(C(=O)NO)cc43)oc2c1 [Compound I-213, N-hydroxy-4-((6-methylbenzo[d]oxazol-2-yl)methyl)-3-oxo-3,4-dihydro-2H-benzo[b][1,4]oxazine-6-carboxamide] |
| < 25 | ≤ 25 | O=C(NO)c1ccc2c(c1)N(Cc1nc3cc(Cl)ccc3s1)C(=O)CO2 [Compound I-290, 4-((5-chlorobenzo[d]thiazol-2-yl)methyl)-N-hydroxy-3-oxo-3,4-dihydro-2H-benzo[b][1,4]oxazine-6-carboxamide] |
| < 25 | ≤ 25 | Cc1cccc(CN2C(=O)COc3ccc(C(=O)NO)cc32)c1F [Compound I-74, 4-(2-fluoro-3-methylbenzyl)-N-hydroxy-3-oxo-3,4-dihydro-2H-benzo[b][1,4]oxazine-6-carboxamide] |
| 25 to 100 | ≤ 25 | Cc1cccc(CN2C(=O)COc3ccc(C(=O)NO)cc32)c1 [Compound I-68, N-hydroxy-4-(3-methylbenzyl)-3-oxo-3,4-dihydro-2H-benzo[b][1,4]oxazine-6-carboxamide] |
| < 25 | ≤ 25 | O=C(NO)c1ccc2c(c1)N(Cc1nc3ccc(F)cc3o1)C(=O)CO2 [Compound I-218, 4-((6-fluorobenzo[d]oxazol-2-yl)methyl)-N-hydroxy-3-oxo-3,4-dihydro-2H-benzo[b][1,4]oxazine-6-carboxamide] |
| 100 to 1000 |  | CCn1c(CN2C(=O)COc3ccc(C(=O)NO)cc32)nc2ccc(Cl)cc21 [Compound I-269, 4-((6-chloro-1-ethyl-1H-benzo[d]imidazol-2-yl)methyl)-N-hydroxy-3-oxo-3,4-dihydro-2H-benzo[b][1,4]oxazine-6-carboxamide] |
| 100 to 1000 |  | O=C(NO)c1ccc2c(c1)N(Cc1ccccc1C(F)(F)F)C(=O)CO2 [Compound I-65, N-hydroxy-3-oxo-4-(2-(trifluoromethyl)benzyl)-3,4-dihydro-2H-benzo[b][1,4]oxazine-6-carboxamide] |
| 100 to 1000 |  | CCCn1c(CN2C(=O)COc3ccc(C(=O)NO)cc32)nc2ccccc21 [Compound I-282, N-hydroxy-3-oxo-4-((1-propyl-1H-benzo[d]imidazol-2-yl)methyl)-3,4-dihydro-2H-benzo[b][1,4]oxazine-6-carboxamide] |
